Test results taken from article PMC6382696, “Drug Repurposing: The Anthelmintics Niclosamide and Nitazoxanide Are Potent TMEM16A Antagonists That Fully Bronchodilate Airways” (Frontiers in Pharmacology, 2019).

How the values were obtained:
[1] = system: primary human airway smooth muscle cells; experiment: Methacholine-induced depolarization of primary human airway smooth muscle cells; assay type: cell-based; conditions: donor 199524, 20 M methacholine (so in the source), read-out: EC50 inhibition of methacholine-induced depolarization (converted)
Protocol: Cultured human bronchial smooth muscle cells (BSMC) from Lonza were resuspended in Smooth Muscle Growth Medium-2 (SmGM-2; Lonza) at a concentration of 4 × 10^5 cells per ml. One hundred microliters of cells per well were plated in a black wall clear bottom polystyrene 96-well tissue culture plate and incubated in a 37°C humidified incubator with 5% CO2 overnight. Cells were serum starved by removing the SmGM-2 and replaced with one hundred microliters per well of Smooth Muscle Cell Basal Medium 2 (SmBM-2), phenol red-free (PromoCell), and incubated in a 37°C humidified incubator with 5% CO2 for 24 h. SmBM-2 was replaced with 100 microliters of fresh SmBM-2. […] Using the FLIPR-Tetra (Molecular Devices), three measurements of the baseline fluorescence were taken over the span of 1 min. […] Fifty-five fluorescence measurements were taken over the span of 14 min. The area under the curve (AUC) from the fluorescence kinetic traces (normalized to baseline fluorescence) were calculated. The amount of fluorescence in the presence of compound compared with that in the presence of DMSO vehicle alone (HI control) was calculated using the formula: % control (POC) = (compd – average LO)/(average HI – average LO)^∗100. […]
Panels (B-D) show raw fluorescence data from the membrane potential assay of buffer alone (dashed line), buffer plus 20 µM methacholine […]
RFU = relative fluorescence units. […]

HT29 = system: HT29; design: method as in Li et al., 2014; conditions: ref Li et al., 2014, read-out: IC50 inhibition of proliferation; cited from earlier work

SMILES	EC50 [1] [µM]	IC50 (HT29) [µM]
Oc1ccc(Cl)cc1Cc1cc(Cl)ccc1O [Dichlorophen]	3.7	–
O=C(Nc1ccc([N+](=O)[O-])cc1Cl)c1cc(Cl)ccc1O [Niclosamide]	–	4.17
